Laboratory results reported in PubChem BioAssay (NCI).
“And” between values parts separate entries of the source, which are not always exact repeats. Identical values can stand only once.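 These data come from cells grown in 96-well plates and exposed to compound for 48 hours at five concentrations. At the GI50, growth is halved. At the TGI there is no net growth.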

Tests used:
Assay in all cases: NCI tumour cell line growth inhibition, 48 h
U251 CNS = tested on: U251 CNS
IGROV1 ovarian = tested on: IGROV1 ovarian
SK-OV-3 ovarian = tested on: SK-OV-3 ovarian
NCI-H23 lung = tested on: NCI-H23 lung
786-0 renal = tested on: 786-0 renal
MALME-3M melanoma = tested on: MALME-3M melanoma
DU-145 prostate = tested on: DU-145 prostate
BT-549 breast = tested on: BT-549 breast
MDA-MB-231 breast = tested on: MDA-MB-231 breast
CAKI-1 renal = tested on: CAKI-1 renal

OCc1c(-c2cccc3ccccc23)sc(-c2cccc3ccccc23)c1CO
TGI (U251 CNS): 24.9 µM | TGI (IGROV1 ovarian): 28 µM | TGI (SK-OV-3 ovarian): 29.3 µM | TGI (NCI-H23 lung): 30.1 µM | TGI (786-0 renal): 27.4 µM | TGI (MALME-3M melanoma): 24.5 µM

O=[N+]([O-])c1ccc(NSc2ccccc2)cc1
TGI (U251 CNS): > 100 µM | TGI (IGROV1 ovarian): 27.7 µM | TGI (SK-OV-3 ovarian): 87.3 µM | TGI (NCI-H23 lung): > 100 µM | TGI (786-0 renal): 30.8 µM | TGI (MALME-3M melanoma): > 100 µM

CC1=C(CCCOC(=O)NCCCl)C2=C(C)C3(CC3)[C@@](C)(O)C(=O)C2=C1
GI50 (DU-145 prostate): 1.14 µM | TGI (DU-145 prostate): > 100 µM | GI50 (U251 CNS): 3.97 µM | TGI (U251 CNS): > 100 µM | GI50 (IGROV1 ovarian): 1.77 µM | TGI (IGROV1 ovarian): 17.6 µM | GI50 (SK-OV-3 ovarian): 2.35 µM | TGI (SK-OV-3 ovarian): 6.46 µM | GI50 (BT-549 breast): 2.08 µM | TGI (BT-549 breast): 6.66 µM | GI50 (MDA-MB-231 breast): 2.56 µM | TGI (MDA-MB-231 breast): 8.35 µM | GI50 (NCI-H23 lung): 1.83 µM | TGI (NCI-H23 lung): 9.17 µM | GI50 (786-0 renal): 2.71 µM | TGI (786-0 renal): 8.16 µM | GI50 (MALME-3M melanoma): 1.85 µM | TGI (MALME-3M melanoma): 4.22 µM

Cc1nc2nnc(C)n2c2c1C(=O)Nc1ccccc1N2
TGI (U251 CNS): > 100 µM | TGI (IGROV1 ovarian): > 100 µM | TGI (SK-OV-3 ovarian): > 100 µM | TGI (NCI-H23 lung): > 100 µM | TGI (786-0 renal): > 100 µM | TGI (MALME-3M melanoma): > 100 µM

O=S(=O)(O)C(O)/C=C/c1ccccc1 (stereo not given)
TGI (U251 CNS): > 100 µM | TGI (CAKI-1 renal): > 100 µM | TGI (IGROV1 ovarian): > 100 µM | TGI (SK-OV-3 ovarian): > 100 µM | TGI (NCI-H23 lung): > 100 µM | TGI (786-0 renal): > 100 µM | TGI (MALME-3M melanoma): > 100 µM

Cc1cccc2c3ccc4c(c3n(C)c12)C(=O)C=CC4=O
TGI (CAKI-1 renal): > 100 µM | TGI (IGROV1 ovarian): > 100 µM | TGI (SK-OV-3 ovarian): > 100 µM | TGI (NCI-H23 lung): 57.8 µM | TGI (786-0 renal): > 100 µM | TGI (MALME-3M melanoma): > 100 µM

O=C(O)/C=C/C(=O)Nc1ncn[nH]1
TGI (DU-145 prostate): > 100 µM | TGI (U251 CNS): > 100 µM | TGI (CAKI-1 renal): > 100 µM | TGI (IGROV1 ovarian): > 100 µM | TGI (SK-OV-3 ovarian): > 100 µM | TGI (BT-549 breast): > 100 µM | TGI (MDA-MB-231 breast): > 100 µM | TGI (NCI-H23 lung): > 100 µM | TGI (786-0 renal): > 100 µM

CN1CCCNCCN(CCc2ccccn2)CCCN(C)CC1
TGI (U251 CNS): > 100 µM | TGI (CAKI-1 renal): > 100 µM | TGI (IGROV1 ovarian): > 100 µM | TGI (SK-OV-3 ovarian): > 100 µM | TGI (NCI-H23 lung): > 100 µM | TGI (786-0 renal): 53.9 µM | TGI (MALME-3M melanoma): > 100 µM

COc1cccc(-c2nc(-c3cnccn3)n(Cc3ccccc3)n2)c1
TGI (DU-145 prostate): > 100 µM | TGI (U251 CNS): > 100 µM | TGI (IGROV1 ovarian): > 100 µM | TGI (SK-OV-3 ovarian): > 100 µM | TGI (BT-549 breast): > 100 µM | TGI (MDA-MB-231 breast): > 100 µM | TGI (NCI-H23 lung): > 100 µM | TGI (786-0 renal): > 100 µM

CN1CCN(C(=S)N(C)C(=O)c2ccc(Cl)cc2)CC1
TGI (DU-145 prostate): > 100 µM | TGI (U251 CNS): > 100 µM | TGI (IGROV1 ovarian): > 100 µM | TGI (BT-549 breast): > 100 µM | TGI (MDA-MB-231 breast): > 100 µM | TGI (NCI-H23 lung): > 100 µM | TGI (786-0 renal): > 100 µM | TGI (MALME-3M melanoma): > 100 µM

C[C@]12CCC(=O)C=C1CC[C@@H]1C2CC[C@]2(C)NC(=O)C(C#N)CC12 (stereo not given in full)
TGI (U251 CNS): > 100 µM | TGI (CAKI-1 renal): > 100 µM | TGI (IGROV1 ovarian): > 100 µM | TGI (SK-OV-3 ovarian): > 100 µM | TGI (NCI-H23 lung): > 100 µM | TGI (786-0 renal): > 100 µM | TGI (MALME-3M melanoma): > 100 µM

O=c1c(Cl)c(Cl)cnn1-c1ccccc1
TGI (DU-145 prostate): 28 µM and 27.8 µM | TGI (U251 CNS): 3.37 µM and 7.42 µM | GI50 (IGROV1 ovarian): 1.81 µM and 7.02 µM | TGI (IGROV1 ovarian): 3.37 µM and 21.5 µM | GI50 (SK-OV-3 ovarian): 8.36 µM and 3.44 µM | TGI (SK-OV-3 ovarian): 21.2 µM and 10.6 µM | TGI (BT-549 breast): 3.12 µM and 3.19 µM | TGI (MDA-MB-231 breast): 3.34 µM | GI50 (NCI-H23 lung): 2.04 µM and 5.73 µM | TGI (NCI-H23 lung): 5.68 µM and 13.3 µM | TGI (786-0 renal): 11.1 µM and 12.1 µM | TGI (MALME-3M melanoma): 7.91 µM and 9.73 µM

COc1ccc(CNC(=O)COc2ccc(/C=N/Nc3nc4ccccc4s3)cc2)cc1
GI50 (DU-145 prostate): 3.8 µM | TGI (DU-145 prostate): > 100 µM | GI50 (U251 CNS): 1.73 µM | TGI (U251 CNS): 5.43 µM | GI50 (CAKI-1 renal): 1.98 µM | TGI (CAKI-1 renal): 5.21 µM | GI50 (IGROV1 ovarian): 1.69 µM | TGI (IGROV1 ovarian): 6.73 µM | GI50 (BT-549 breast): 1.61 µM | TGI (BT-549 breast): 3.41 µM | GI50 (MDA-MB-231 breast): 1.86 µM | TGI (MDA-MB-231 breast): 4.45 µM | GI50 (NCI-H23 lung): 3.05 µM | TGI (NCI-H23 lung): 12.6 µM | GI50 (786-0 renal): 2.37 µM | TGI (786-0 renal): 5.9 µM | GI50 (MALME-3M melanoma): 1.55 µM | TGI (MALME-3M melanoma): 3.89 µM

Cc1c(C(=O)/C=C/c2cccc3ccccc23)[n+](=O)c2ccccc2n1[O-]
TGI (U251 CNS): 29.1 µM | TGI (CAKI-1 renal): 21.8 µM | TGI (IGROV1 ovarian): 48.7 µM | TGI (SK-OV-3 ovarian): 32.6 µM | TGI (NCI-H23 lung): 25.7 µM | TGI (786-0 renal): 26.4 µM | TGI (MALME-3M melanoma): 34.9 µM

COc1ccc(/C=C(/C(=O)O)c2cc(OC)c(OC)c(OC)c2)cc1
TGI (U251 CNS): > 100 µM | TGI (CAKI-1 renal): > 100 µM | TGI (IGROV1 ovarian): > 100 µM | TGI (SK-OV-3 ovarian): > 100 µM | TGI (NCI-H23 lung): > 100 µM | TGI (786-0 renal): > 100 µM | TGI (MALME-3M melanoma): > 100 µM

CC1=CCCC(OC(N)=O)C1 (stereo not given)
TGI (U251 CNS): > 100 µM | TGI (CAKI-1 renal): > 100 µM | TGI (IGROV1 ovarian): > 100 µM | TGI (SK-OV-3 ovarian): > 100 µM | TGI (NCI-H23 lung): > 100 µM | TGI (786-0 renal): > 100 µM | TGI (MALME-3M melanoma): > 100 µM

CCOC(=O)c1c(N)n(-c2ccccc2)c(=S)n(-c2ccccc2)c1=O
TGI (DU-145 prostate): > 100 µM | TGI (U251 CNS): > 100 µM | TGI (IGROV1 ovarian): > 100 µM | TGI (BT-549 breast): > 100 µM | TGI (MDA-MB-231 breast): > 100 µM | TGI (NCI-H23 lung): > 100 µM | TGI (786-0 renal): > 100 µM | TGI (MALME-3M melanoma): > 100 µM

COc1ccc(-n2cc(-c3ccc(OC)c(OC)c3)[nH]c2=S)cc1Cl
GI50 (DU-145 prostate): > 100 µM | TGI (DU-145 prostate): > 100 µM | GI50 (U251 CNS): 41.1 µM | TGI (U251 CNS): > 100 µM | GI50 (CAKI-1 renal): > 100 µM | TGI (CAKI-1 renal): > 100 µM | GI50 (IGROV1 ovarian): > 100 µM | TGI (IGROV1 ovarian): > 100 µM | GI50 (SK-OV-3 ovarian): > 100 µM | TGI (SK-OV-3 ovarian): > 100 µM | GI50 (MDA-MB-231 breast): 61.4 µM | TGI (MDA-MB-231 breast): > 100 µM | GI50 (NCI-H23 lung): > 100 µM | TGI (NCI-H23 lung): > 100 µM | GI50 (786-0 renal): 52.3 µM | TGI (786-0 renal): > 100 µM | GI50 (MALME-3M melanoma): > 100 µM | TGI (MALME-3M melanoma): > 100 µM

C/C(=N\NC(N)=S)c1ccc(C)cc1C
TGI (U251 CNS): > 100 µM | TGI (CAKI-1 renal): > 100 µM | TGI (IGROV1 ovarian): > 100 µM | TGI (SK-OV-3 ovarian): > 100 µM | TGI (NCI-H23 lung): > 100 µM | TGI (786-0 renal): > 100 µM | TGI (MALME-3M melanoma): > 100 µM

OCCNCO
TGI (U251 CNS): > 100 µM | TGI (CAKI-1 renal): > 100 µM | TGI (IGROV1 ovarian): > 100 µM | TGI (SK-OV-3 ovarian): > 100 µM | TGI (NCI-H23 lung): > 100 µM | TGI (786-0 renal): > 100 µM

CNC(=O)c1cc(Oc2ccc3c(c2)sc2nc(-c4ccc(N)cc4)cn23)ccn1
GI50 (DU-145 prostate): 0.344 µM | TGI (DU-145 prostate): > 100 µM | GI50 (U251 CNS): 0.194 µM | TGI (U251 CNS): > 100 µM | GI50 (CAKI-1 renal): 0.329 µM | TGI (CAKI-1 renal): > 100 µM | GI50 (IGROV1 ovarian): 0.609 µM | TGI (IGROV1 ovarian): > 100 µM | GI50 (SK-OV-3 ovarian): 0.47 µM | TGI (SK-OV-3 ovarian): > 100 µM | GI50 (BT-549 breast): 0.5 µM | TGI (BT-549 breast): 51.6 µM | GI50 (MDA-MB-231 breast): 0.726 µM | TGI (MDA-MB-231 breast): > 100 µM | GI50 (NCI-H23 lung): 0.491 µM | TGI (NCI-H23 lung): > 100 µM | GI50 (786-0 renal): 0.433 µM | TGI (786-0 renal): > 100 µM

C1CN2N3CCCC23C1 (stereo not given)
TGI (U251 CNS): > 100 µM | TGI (CAKI-1 renal): > 100 µM | TGI (IGROV1 ovarian): > 100 µM | TGI (SK-OV-3 ovarian): > 100 µM | TGI (NCI-H23 lung): > 100 µM | TGI (786-0 renal): > 100 µM | TGI (MALME-3M melanoma): > 100 µM

O=C1CC[C@H]2CNC(=O)C[C@H]2C1
TGI (U251 CNS): > 100 µM | TGI (CAKI-1 renal): > 100 µM | TGI (IGROV1 ovarian): > 100 µM | TGI (SK-OV-3 ovarian): > 100 µM | TGI (NCI-H23 lung): > 100 µM | TGI (786-0 renal): > 100 µM | TGI (MALME-3M melanoma): > 100 µM
